Assay results taken from patent US20250304576A1 (Cancer Research Technology Limited, priority 2022, published 2025).

Legend:
Recombinant IKKα = biological target: T1, Recombinant IKKα (Homo sapiens, UniProt O15111); experiment: DELFIA IKKα kinase assay (apparent Ki, Cheng-Prusoff); type: biochemical; conditions: DELFIA assay (first line of an example)
T1 construct: purchased Millipore, Dundee, UK
T1 sequence (O15111 1-745): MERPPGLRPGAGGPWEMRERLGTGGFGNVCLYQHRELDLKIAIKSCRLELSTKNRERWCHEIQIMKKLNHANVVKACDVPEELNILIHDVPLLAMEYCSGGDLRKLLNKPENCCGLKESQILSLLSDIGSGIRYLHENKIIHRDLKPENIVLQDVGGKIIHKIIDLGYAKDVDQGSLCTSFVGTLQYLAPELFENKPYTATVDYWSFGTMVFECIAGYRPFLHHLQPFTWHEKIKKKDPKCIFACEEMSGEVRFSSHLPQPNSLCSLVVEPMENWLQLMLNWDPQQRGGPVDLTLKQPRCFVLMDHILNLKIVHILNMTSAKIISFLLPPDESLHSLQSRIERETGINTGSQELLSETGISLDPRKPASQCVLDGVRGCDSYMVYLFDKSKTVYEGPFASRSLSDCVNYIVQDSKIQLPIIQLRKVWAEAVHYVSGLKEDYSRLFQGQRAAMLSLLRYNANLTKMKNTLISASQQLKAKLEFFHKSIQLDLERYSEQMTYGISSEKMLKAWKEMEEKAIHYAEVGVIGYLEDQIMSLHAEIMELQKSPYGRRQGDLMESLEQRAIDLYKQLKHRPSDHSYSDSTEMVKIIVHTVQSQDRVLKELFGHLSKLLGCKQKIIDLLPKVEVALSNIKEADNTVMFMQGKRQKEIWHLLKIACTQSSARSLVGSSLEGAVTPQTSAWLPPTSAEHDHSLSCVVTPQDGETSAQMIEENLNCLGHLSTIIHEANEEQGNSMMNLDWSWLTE
Outline: (§1)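 Recombinant IKKα or IKKβ (37 nM) with 0.375 μM biotinylated IκB-α (Ser32) peptide and 40 μM ATP in 40 mM Tris-HCl pH 7.5, 20 mM MgCl2, 60 min at 30° C. Phospho-substrate captured on streptavidin and detected by anti-phospho-IκB-α plus europium anti-mouse IgG time-resolved fluorescence; apparent Ki via Cheng-Prusoff.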

Recombinant IKKβ = biological target: T2, Recombinant IKKβ (Homo sapiens, UniProt O14920); experiment: DELFIA IKKβ kinase assay (apparent Ki, Cheng-Prusoff); type: biochemical; conditions: DELFIA assay (first line of an example)
T2 construct: purchased Millipore, Dundee, UK
T2 sequence (O14920 1-756): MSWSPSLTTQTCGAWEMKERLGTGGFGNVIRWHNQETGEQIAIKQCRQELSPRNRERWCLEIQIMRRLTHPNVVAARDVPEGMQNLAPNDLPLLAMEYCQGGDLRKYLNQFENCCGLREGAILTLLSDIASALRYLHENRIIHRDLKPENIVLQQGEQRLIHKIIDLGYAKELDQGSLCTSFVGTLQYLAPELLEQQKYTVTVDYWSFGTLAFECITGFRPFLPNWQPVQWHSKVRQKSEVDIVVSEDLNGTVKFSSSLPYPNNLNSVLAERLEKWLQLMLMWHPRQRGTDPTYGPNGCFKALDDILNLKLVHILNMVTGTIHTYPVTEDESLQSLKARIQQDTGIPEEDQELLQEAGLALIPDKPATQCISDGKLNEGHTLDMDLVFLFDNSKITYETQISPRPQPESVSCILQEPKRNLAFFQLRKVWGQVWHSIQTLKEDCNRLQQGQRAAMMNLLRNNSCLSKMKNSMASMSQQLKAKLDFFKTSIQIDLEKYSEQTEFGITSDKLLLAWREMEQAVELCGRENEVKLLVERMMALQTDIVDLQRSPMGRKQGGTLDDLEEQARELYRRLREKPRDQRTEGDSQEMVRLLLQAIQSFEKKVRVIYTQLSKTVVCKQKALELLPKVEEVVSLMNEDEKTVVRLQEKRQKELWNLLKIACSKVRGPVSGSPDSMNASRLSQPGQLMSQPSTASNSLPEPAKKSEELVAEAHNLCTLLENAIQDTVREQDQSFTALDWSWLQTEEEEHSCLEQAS
Outline: as §1

SMILES | Ki (Recombinant IKKα) [nM] | Ki (Recombinant IKKβ) [nM]
CC(C)(C)C#Cc1cc(-c2ccnc3[nH]c(C4CC4)cc23)cc2c(N)n[nH]c12 [Example 294, 5-(2-Cyclopropyl-1H-pyrrolo[2,3-b]pyridin-4-v)-7-(3,3-dimethylbut-1-yn-1-Vl)-1H-indazol-3-amine] | 57 | 322
CC(C)(C)C#Cc1cc(-c2ccnc3[nH]c(C4CCCC4)cc23)cc2c(N)n[nH]c12 [Example 295, 5-(2-Cyclopentyl-1H-pyrrolo[2,3-b]pyridin-4-yl)-7-(3,3-dimethylbut-1-yn-1-yl)-1H-indazol-3-amine] | 545 | 1160
CC(C)(C)C#Cc1cc(-c2ccnc3[nH]c(C(C)(C)C)cc23)cc2c(N)n[nH]c12 [Example 296, 5-(2-(tert-Butyl)-1H-pyrrolo[2,3-b]pyridin-4-yl)-7-(3,3-dimethylbut-1-yn-1-yl)-1H-indazol-3-amine] | 449 | 1080
CC(C)(C)C#Cc1cc(-c2ccnc3[nH]c(C(F)F)nc23)cc2c(N)n[nH]c12 [Example 300, 5-(2-(Difluoromethyl)-3H-imidazo[4,5-b]pyridin-7-yl)-7-(3,3-dimethylbut-1-yn-1-yl)-1H-indazol-3-amine] | 13 | 1340
CC(C)(C)C#Cc1cc(-c2ccnc3[nH]c(C4CCC4)nc23)cc2c(N)n[nH]c12 [Example 301, 5-(2-Cyclobutyl-3H-imidazo[4,5-b]pyridin-7-yl)-7-(3,3-dimethylbut-1-yn-1-yl)-1H-indazol-3-amine] | 82 | 1240
Nc1n[nH]c2c(C#CC3(O)CCCC3)cc(-c3ccnc(NC4COC4)c3)cc12 [Example 305, 1-((3-Amino-5-(2-(oxetan-3-ylamino)pyridin-4-yl)-1H-indazol-7-yl)ethynyl)cyclopentan-1-ol] | 96 | 1090
CC(C)(C)C#Cc1cc(-c2ccnc3[nH]c(C(F)(F)F)nc23)cc2c(N)n[nH]c12 [Example 308, 7-(3,3-dimethylbut-1-yn-1-yl)-5-(2-(trifluoromethyl)-3H-imidazo[4,5-b]pyridin-7-yl)-1H-indazol-3-amine] | 223 | > 3330
CC(C)(C)C#Cc1cc(-c2ccnc(NC#N)c2)cc2c(N)n[nH]c12 [Example 309, N-(4-(3-Amino-7-(3,3-dimethylbut-1-yn-1-yl)-1H-indazol-5-yl)pyridin-2-yl)cyanamide] | 421 | 8660
CC(C)(C)C#Cc1cc(-c2ccnc(Nc3cn[nH]c3)c2)cc2c(N)n[nH]c12 [Example 311, 5-(2-((1H-Pyrazol-4-yl)amino)pyridin-4-yl)-7-(3,3-dimethylbut-1-yn-1-yl)-1H-indazol-3-amine] | 10 | 280
Cc1cc(Nc2cc(-c3cc(C#CC(C)(C)C)c4[nH]nc(N)c4c3)ccn2)n[nH]1 [Example 312, 7-(3,3-Dimethylbut-1-yn-1-yl)-5-(2-((5-methyl-1H-pyrazol-3-yl)amino)pyridin-4-yl)-1H-indazol-3-amine] | 45 | 210
CC(C)(C)C#Cc1cc(-c2ccnc(Nc3nc(C(F)(F)F)co3)c2)cc2c(N)n[nH]c12 [Example 316, N-(4-(3-Amino-7-(3,3-dimethylbut-1-yn-1-yl)-1H-indazol-5-yl)pyridin-2-yl)-4-(trifluoromethyl)oxazol-2-amine] | 335 | > 30000

The next lines start with the values.

Ki (Recombinant IKKα) [nM] | Ki (Recombinant IKKβ) [nM] | SMILES
19 | 278 | COC(=O)Nc1cc(-c2cc(CCC(C)(C)C)c3[nH]nc(N)c3c2)ccn1 [Example 293, Methyl (4-(3-amino-7-(3,3-dimethylbutyl)-1H-indazol-5-yl)pyridin-2-yl)carbamate]
2 | 268 | CC(C)(C)C#Cc1cc(-c2ccnc3[nH]c(CO)cc23)cc2c(N)n[nH]c12 [Example 297, (4-(3-Amino-7-(3,3-dimethylbut-1-yn-1-yl)-1H-indazol-5-yl)-1H-pyrrolo[2,3-b]pyridin-2-yl)methanol]
16 | 540 | CC(C)(C)C#Cc1cc(-c2ccnc3[nH]c(C(C)(C)O)cc23)cc2c(N)n[nH]c12 [Example 298, 2-(4-(3-Amino-7-(3,3-dimethylbut-1-yn-1-yl)-1H-indazol-5-yl)-1H-pyrrolo[2,3-b]pyridin-2-yl)propan-2-ol]
10 | > 370 | COC(=O)c1cc2c(-c3cc(C#CC(C)(C)C)c4[nH]nc(N)c4c3)ccnc2[nH]1 [Example 299, Methyl 4-(3-amino-7-(3,3-dimethylbut-1-yn-1-yl)-1H-indazol-5-yl)-1H-pyrrolo[2,3-b]pyridine-2-carboxylate]
62 | 148 | Cn1ccc(Nc2cc(-c3cc(C#CC(C)(C)C)c4[nH]nc(N)c4c3)ccn2)n1 [Example 302, 7-(3,3-dimethylbut-1-yn-1-yl)-5-(2-((1-methyl-1H-pyrazol-3-yl)amino)pyridin-4-yl)-1H-indazol-3-amine]
36 | 68 | Cn1cc(Nc2cc(-c3cc(C#CC(C)(C)C)c4[nH]nc(N)c4c3)ccn2)cn1 [Example 303, 7-(3,3-dimethylbut-1-yn-1-yl)-5-(2-((1-methyl-1H-pyrazol-4-yl)amino)pyridin-4-yl)-1H-indazol-3-amine]
64 | 275 | COC(=O)Nc1cc(-c2cc(C#CC3(O)CCCC3)c3[nH]nc(N)c3c2)ccn1 [Example 304, Methyl (4-(3-amino-7-((1-hydroxycyclopentyl)ethynyl)-1H-indazol-5-yl)pyridin-2-yl)carbamate]
48 | 205 | CC(C)(C)C#Cc1cc(-c2ccnc(Nc3cc[nH]n3)c2)cc2c(N)n[nH]c12 [Example 310, 5-(2-((1H-Pyrazol-3-yl)amino)pyridin-4-yl)-7-(3,3-dimethylbut-1-yn-1-yl)-1H-indazol-3-amine]
24 | 940 | Cc1n[nH]cc1Nc1cc(-c2cc(C#CC(C)(C)C)c3[nH]nc(N)c3c2)ccn1 [Example 313, 7-(3,3-Dimethylbut-1-yn-1-yl)-5-(2-((3-methyl-1H-pyrazol-4-yl)amino)pyridin-4-yl)-1H-indazol-3-amine]
911 | ≥ 10000 | CC(C)(C)C#Cc1cc(-c2ccnc(Nc3nccs3)c2)cc2c(N)n[nH]c12 [Example 314, N-(4-(3-Amino-7-(3,3-dimethylbut-1-yn-1-yl)-1H-indazol-5-yl)pyridin-2-yl)thiazol-2-amine]
54 | 836 | Cc1coc(Nc2cc(-c3cc(C#CC(C)(C)C)c4[nH]nc(N)c4c3)ccn2)n1 [Example 315, N-(4-(3-Amino-7-(3,3-dimethylbut-1-yn-1-yl)-1H-indazol-5-yl)pyridin-2-yl)-4-methyloxazol-2-amine]
318 | 4040 | Cc1noc(C)c1Nc1cc(-c2cc(C#CC(C)(C)C)c3[nH]nc(N)c3c2)ccn1 [Example 317, N-(4-(3-amino-7-(3,3-dimethylbut-1-yn-1-yl)-1H-indazol-5-yl)pyridin-2-yl)-3,5-dimethylisoxazol-4-amine]
66 | 502 | CC(C)(C)C#Cc1cc(-c2ccnc(Nc3c[nH]cn3)c2)cc2c(N)n[nH]c12 [Example 318, 5-(2-((1H-Imidazol-4-yl)amino)pyridin-4-yl)-7-(3,3-dimethylbut-1-yn-1-yl)-1H-indazol-3-amine]
27 | 486 | CC(C)(C)C#Cc1cc(-c2ccnc(Nc3nnc[nH]3)c2)cc2c(N)n[nH]c12 [Example 319, 5-(2-((4H-1,2,4-Triazol-3-yl)amino)pyridin-4-yl)-7-(3,3-dimethylbut-1-yn-1-yl)-1H-indazol-3-amine]
